Experimental data: patent EP4817688A2, “DEGRADING PKCß1 TO TREAT CANCER” (Mayo Foundation for Medical Education and Research, priority 2020, dated 2022)

How the values were obtained:
Assay type in all cases: cell-based
[1] = system: MDAMB436 cells; test: crystal violet (CV) proliferation assay, MDAMB436; conditions: Homo sapiens, MDA-MB-436, MDAMB436 (PKCβ1^low, Rb^negative) 2000 cells
Method: (§1) Cell proliferation rates were determined using crystal violet assays. One thousand cells per well were plated in 96 well tissue culture plates and treated the following day with a bifunctional compound or control for 7 days in replicates of 8. Cells were fixed with 25% glutaraldehyde for 10 minutes with shaking, washed 5 times with distilled water, stained with a 1% crystal violet solution (solubilized in 25% methanol) for 10 minutes, washed again 5 times and allowed to dry. De-staining was performed using […] sodium citrate in 50% ethanol followed by quantification using a 96 well spectrophotometer set at an absorbance of 550 nm.

[2] = system: KURAMOCHI cells; test: crystal violet (CV) proliferation assay, KURAMOCHI; conditions: KURAMOSHI (PKCβ1^low) 1000 cells/well; read-out: Approximate IC50
Method: as §1
(§2) Based on the potent anti-proliferative activity of ENDX-PROTACs TC-Pr-006, TC-Pr-007, TC-Pr -008, and TC-Pr -009 in TNBC cells, the efficacy of these compounds for inhibiting the growth of ovarian cancer cells was tested. This analysis utilized KURAMOCHI cells, which represent the high-grade serous subtype (the most malignant form that accounts for 70% of all ovarian cancers and associates with poor clinical outcome) and MDAH-2774 cells, which represent endometrioid ovarian cancer and accounts for 20% of all ovarian cancer. PKCβ1 was confirmed to be expressed in both ovarian cancer cell line models, with MDAH-2774 cells expressing higher amounts of PKCβ1 compared to KURAMOCHI cells (FIG. 5A). […]

[3] = system: MDAMB231 cells; test: crystal violet (CV) proliferation assay, MDAMB231; conditions: Homo sapiens, MDA-MB-231, MDAMB231 (PKCβ1^high, Rb^positive) 2000 cells
Method: as §1

[4] = system: BT549 cells; test: crystal violet (CV) proliferation assay, BT549; conditions: Homo sapiens, BT-549, BT549 (PKCβ1^high, Rb^regative) 2000 cells
Method: as §1

[5] = system: MDAH-2774 cells; test: crystal violet (CV) proliferation assay, MDAH-2774; conditions: Homo sapiens; MDAH-2774 (PKCβ1^high) 1000 cells/well; read-out: Approximate IC50
Method: as §1, §2

CC/C(=C(\c1ccc(O)cc1)c1ccc(OCCNC)cc1)c1ccccc1 [ENDX, endoxifen, reference compound]
IC50 [1]: > 5 µM
IC50 [2]: > 10 µM
IC50 [3]: > 5 µM
IC50 [4]: > 5 µM
IC50 [5]: > 10 µM
